According to the supplement of paper PMC10307832:

Assays:
Assay in all cases: relative viability (nuclei count vs DMSO), 5 days (fraction); higher = more cells survive
Shikonin + Alpelisib = compound: CC(C)=CC[C@@H](O)C1=CC(=O)c2c(O)ccc(O)c2C1=O [Shikonin] + Cc1nc(NC(=O)N2CCC[C@H]2C(N)=O)sc1-c1ccnc(C(C)(C)C(F)(F)F)c1 [Alpelisib] (partner 2 µM)
Method in brief: (§1)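 Lung cancer cell lines, seeded in 1536-well plates, were treated the following day by pin tool with a single drug or with five library-drug doses (not always all listed) in √10 steps on top of a fixed anchor-drug dose. Cells were fixed and nuclei stained in one step after 5 days, and nuclei were counted. Relative viability is the nuclei count for treated wells divided by that for vehicle wells, reported as medians of duplicate plates.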

Shikonin + Pemetrexed = compound: CC(C)=CC[C@@H](O)C1=CC(=O)c2c(O)ccc(O)c2C1=O [Shikonin] + Nc1nc2[nH]cc(CCc3ccc(C(=O)N[C@@H](CCC(=O)O)C(=O)O)cc3)c2c(=O)[nH]1 [Pemetrexed] (partner 0.2 µM)
Method in brief: as §1

Shikonin + Olaparib = compound: CC(C)=CC[C@@H](O)C1=CC(=O)c2c(O)ccc(O)c2C1=O [Shikonin] + O=C(c1cc(Cc2n[nH]c(=O)c3ccccc23)ccc1F)N1CCN(C(=O)C2CC2)CC1 [Olaparib] (partner 8 µM)
Method in brief: as §1

[1] = compound: CC(C)N(CCCNC(=O)Nc1ccc(C(C)(C)C)cc1)C[C@H]1O[C@@H](n2ccc3c(N)ncnc32)[C@H](O)[C@@H]1O + Cc1nc(Nc2ncc(C(=O)Nc3c(C)cccc3Cl)s2)cc(N2CCN(CCO)CC2)n1 [Dasatinib] (partner 0.075 µM)
Method in brief: as §1

Cell Line: UMC-11
- relative viability (Shikonin + Alpelisib; first compound 0.01 µM): 0.875
- relative viability (Shikonin + Alpelisib; first compound 0.1 µM): 1.08
- relative viability (Shikonin + Alpelisib; first compound 0.3162 µM): 0.996
- relative viability (Shikonin + Alpelisib; first compound 1 µM): 1.18
- relative viability (Shikonin + Pemetrexed; first compound 0.01 µM): 0.813
- relative viability (Shikonin + Pemetrexed; first compound 0.1 µM): 0.942
- relative viability (Shikonin + Pemetrexed; first compound 0.3162 µM): 0.836
- relative viability (Shikonin + Pemetrexed; first compound 1 µM): 0.793
- relative viability (Shikonin + Olaparib; first compound 0.01 µM): 0.332
- relative viability (Shikonin + Olaparib; first compound 0.1 µM): 0.374
- relative viability (Shikonin + Olaparib; first compound 0.3162 µM): 0.346
- relative viability (Shikonin + Olaparib; first compound 1 µM): 0.374
- relative viability ([1]; first compound 0.08 µM): 0.461
- relative viability ([1]; first compound 0.253 µM): 0.422
- relative viability ([1]; first compound 0.8 µM): 0.436
- relative viability ([1]; first compound 2.53 µM): 0.486
- relative viability ([1]; first compound 8 µM): 0.492
